In ChEMBL document CHEMBL1201862, “PubChem BioAssay data set” (2004):
Activity calls are given as the source filed them.

What was measured:
[1] = test system: Streptococcus sp. 'group A'; assay: growth inhibition of control SK(-) GAS strain, dose response, counter-screen for streptokinase expression inhibitor project, luminescence, kanamycin, BacTiterGlo, confirmation (AID 1900); format: functional, organism-based
Streptokinase A = target: T1, Streptokinase A (Streptococcus pyogenes serotype M1, UniProt P10520); assay: S. pyogenes streptokinase expression inhibitors, potency, dose response, plasminogen activation absorbance, OD405 (AID 1914); format: functional, Streptococcus pyogenes M1 GAS;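 note: secreted streptokinase activity via plasminogen activation per viability signal from cell pellet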
T1 sequence (P10520 whole entry): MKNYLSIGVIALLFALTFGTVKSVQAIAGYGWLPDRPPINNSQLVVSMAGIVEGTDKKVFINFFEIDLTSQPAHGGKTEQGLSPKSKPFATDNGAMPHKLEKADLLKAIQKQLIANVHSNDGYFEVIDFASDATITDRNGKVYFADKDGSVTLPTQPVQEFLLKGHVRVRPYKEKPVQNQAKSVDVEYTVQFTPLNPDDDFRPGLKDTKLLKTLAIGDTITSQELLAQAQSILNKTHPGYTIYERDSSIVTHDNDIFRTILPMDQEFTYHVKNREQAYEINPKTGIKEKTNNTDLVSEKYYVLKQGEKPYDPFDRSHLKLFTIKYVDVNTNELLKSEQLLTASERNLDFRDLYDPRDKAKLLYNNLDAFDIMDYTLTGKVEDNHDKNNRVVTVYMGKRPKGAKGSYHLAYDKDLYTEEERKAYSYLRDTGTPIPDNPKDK

Ion channel NompC = Ion channel NompC (Danio rerio, UniProt Q7T1G6); assay: Dose response cell-based high-throughput screening assay for agonists of the transient receptor potential channel N1 (TRPN1). [Related pubchem assays (depositor defined):AID1424, AID1448]; format: functional
Chain of Ion channel NompC (Q7T1G6 whole entry, the tested form may be a part): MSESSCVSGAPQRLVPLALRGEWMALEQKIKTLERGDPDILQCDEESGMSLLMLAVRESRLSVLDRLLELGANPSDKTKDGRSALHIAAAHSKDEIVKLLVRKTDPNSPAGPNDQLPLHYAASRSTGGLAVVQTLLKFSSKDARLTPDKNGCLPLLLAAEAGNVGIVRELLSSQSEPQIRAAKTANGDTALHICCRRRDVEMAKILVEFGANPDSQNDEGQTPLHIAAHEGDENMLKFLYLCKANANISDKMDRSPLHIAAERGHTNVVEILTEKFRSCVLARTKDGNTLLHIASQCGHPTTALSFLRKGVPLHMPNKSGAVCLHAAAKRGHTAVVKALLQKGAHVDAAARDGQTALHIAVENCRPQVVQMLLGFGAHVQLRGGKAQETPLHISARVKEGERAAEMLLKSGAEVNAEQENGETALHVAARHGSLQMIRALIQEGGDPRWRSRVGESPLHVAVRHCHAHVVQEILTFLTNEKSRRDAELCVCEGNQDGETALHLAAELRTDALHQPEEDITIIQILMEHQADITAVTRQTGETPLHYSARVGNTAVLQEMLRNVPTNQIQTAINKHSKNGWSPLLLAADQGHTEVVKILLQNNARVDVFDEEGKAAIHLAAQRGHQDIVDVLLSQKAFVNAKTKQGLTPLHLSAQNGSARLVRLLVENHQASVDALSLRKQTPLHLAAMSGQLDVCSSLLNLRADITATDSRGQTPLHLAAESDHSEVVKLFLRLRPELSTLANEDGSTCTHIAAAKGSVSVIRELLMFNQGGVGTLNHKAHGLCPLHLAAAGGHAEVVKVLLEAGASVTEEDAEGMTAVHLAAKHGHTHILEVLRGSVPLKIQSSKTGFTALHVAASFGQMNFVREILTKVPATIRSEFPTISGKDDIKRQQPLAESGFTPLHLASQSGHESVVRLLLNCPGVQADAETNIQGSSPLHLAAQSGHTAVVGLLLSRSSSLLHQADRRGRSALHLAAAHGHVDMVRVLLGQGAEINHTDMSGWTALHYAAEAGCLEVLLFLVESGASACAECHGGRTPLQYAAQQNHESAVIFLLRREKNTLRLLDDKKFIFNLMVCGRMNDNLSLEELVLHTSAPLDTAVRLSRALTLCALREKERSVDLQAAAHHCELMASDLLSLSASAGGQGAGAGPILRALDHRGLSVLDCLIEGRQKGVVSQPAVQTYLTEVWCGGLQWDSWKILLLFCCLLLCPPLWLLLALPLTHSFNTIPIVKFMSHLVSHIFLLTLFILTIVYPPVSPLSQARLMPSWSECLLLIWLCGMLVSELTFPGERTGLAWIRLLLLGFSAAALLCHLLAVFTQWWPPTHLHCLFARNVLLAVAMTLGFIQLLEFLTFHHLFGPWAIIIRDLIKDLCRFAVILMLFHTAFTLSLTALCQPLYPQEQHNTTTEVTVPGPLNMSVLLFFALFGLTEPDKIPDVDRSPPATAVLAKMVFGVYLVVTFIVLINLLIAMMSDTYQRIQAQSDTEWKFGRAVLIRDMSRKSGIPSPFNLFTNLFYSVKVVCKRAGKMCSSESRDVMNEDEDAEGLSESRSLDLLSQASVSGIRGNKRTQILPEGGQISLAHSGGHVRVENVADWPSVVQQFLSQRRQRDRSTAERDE

[2] = HIV-1 Env-mediated cell fusion inhibitors, dose response, CCR5-tropic Env (AID 2279); format: functional
Mucolipin-3 = target: T2, Mucolipin-3 (Homo sapiens, UniProt Q8TDD5); assay: Fluorescence counterscreen assay for […] agonists: dose response cell-based high-throughput screening assay to identify agonists of the transient receptor potential channel ML3 (TRPML3). [Related pubchem assays: 1424, 1448 ]; format: functional
T2 sequence (Q8TDD5 whole entry): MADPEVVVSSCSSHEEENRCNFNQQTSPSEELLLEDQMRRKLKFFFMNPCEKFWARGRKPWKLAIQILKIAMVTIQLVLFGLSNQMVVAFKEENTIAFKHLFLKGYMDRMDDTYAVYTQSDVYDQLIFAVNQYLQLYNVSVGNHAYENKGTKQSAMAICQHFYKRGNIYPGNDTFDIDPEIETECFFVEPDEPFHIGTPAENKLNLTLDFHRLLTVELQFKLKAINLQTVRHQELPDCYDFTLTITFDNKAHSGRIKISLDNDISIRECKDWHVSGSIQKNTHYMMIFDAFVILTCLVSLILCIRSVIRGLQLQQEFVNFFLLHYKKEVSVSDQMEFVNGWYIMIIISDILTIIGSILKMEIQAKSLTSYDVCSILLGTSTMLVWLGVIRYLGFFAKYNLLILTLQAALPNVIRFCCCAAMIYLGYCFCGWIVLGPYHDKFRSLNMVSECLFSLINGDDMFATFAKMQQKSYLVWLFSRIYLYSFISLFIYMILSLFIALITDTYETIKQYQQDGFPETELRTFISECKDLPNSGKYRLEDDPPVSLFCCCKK

Streptococcus = assay: Group A Streptococcus viability loss, dose response, counter-screen for streptokinase expression inhibitor project, luminescence, BacTiterGlo (AID 1915); format: functional, organism-based;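 note: potency for reduction of bacterial viability or growth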
[3] = Luminescence Cell-Based Dose Retest to Confirm Inhibitors of Cancer Stem Cells. [Related pubchem assays (depositor defined):AID2717, AID2721]; format: functional; details: Homo sapiens
[4] = Shn3 3'UTR reporter inhibitors, dose response, cell-based, Clone20 osteoblasts, firefly luciferase, cherry-picked (AID 624132); format: functional;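 note: firefly luciferase luminescence from reporter carrying the Shn3 3'UTR in osteoblasts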
[5] = HepG2 cell cytotoxicity, dose response, cytotoxicity control for Shn3 inhibitor project, CellTiter-Glo, cherry-picked (AID 624134); format: functional, cell-based
[6] = control 3'UTR Renilla luciferase suppression, dose response, counter-screen for Shn3 inhibitor project, cell-based, Clone20-Shn3RL, cherry-picked (AID 624133); format: functional
[7] = target: Eukaryotic translation initiation factor 4E (Mus musculus, UniProt P63073); assay: eIF4E–eIF4G protein interaction inhibitors, dose response, biochemical, TR-FRET (AID 855); format: functional;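 note: potency for disrupting eIF4E binding to eIF4GI seen as loss of FRET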
Chain of Eukaryotic translation initiation factor 4E (P63073 whole entry, the tested form may be a part): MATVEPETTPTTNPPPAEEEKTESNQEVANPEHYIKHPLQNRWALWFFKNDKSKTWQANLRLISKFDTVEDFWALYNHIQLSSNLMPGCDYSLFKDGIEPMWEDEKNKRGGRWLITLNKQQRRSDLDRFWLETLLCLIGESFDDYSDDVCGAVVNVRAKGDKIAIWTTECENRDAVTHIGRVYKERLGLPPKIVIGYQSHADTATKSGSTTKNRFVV

[8] = target: T3, Carboxy-terminal domain RNA polymerase II polypeptide A small phosphatase 1 (Homo sapiens, UniProt Q9GZU7); assay: inhibitors of CTDSP1, concentration-response testing, biochemical assay, absorbance-based, actives from ultra-high-throughput screening (AID 540297); format: functional
T3 sequence (Q9GZU7 whole entry): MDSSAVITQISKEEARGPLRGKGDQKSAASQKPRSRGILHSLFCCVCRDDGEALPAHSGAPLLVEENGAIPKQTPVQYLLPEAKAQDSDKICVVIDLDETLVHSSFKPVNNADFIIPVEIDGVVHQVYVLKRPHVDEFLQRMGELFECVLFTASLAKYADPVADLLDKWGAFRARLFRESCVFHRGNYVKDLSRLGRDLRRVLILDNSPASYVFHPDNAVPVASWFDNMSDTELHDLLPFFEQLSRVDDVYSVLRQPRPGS

Bcl-2-related protein A1 = target: T4, Bcl-2-related protein A1 (Mus musculus, UniProt Q07440); format: functional;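 note: confirmatory dose–response counterscreen on Bfl-1, used to check hits from a UBC13 polyubiquitin inhibitor campaign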
T4 sequence (Q07440 whole entry): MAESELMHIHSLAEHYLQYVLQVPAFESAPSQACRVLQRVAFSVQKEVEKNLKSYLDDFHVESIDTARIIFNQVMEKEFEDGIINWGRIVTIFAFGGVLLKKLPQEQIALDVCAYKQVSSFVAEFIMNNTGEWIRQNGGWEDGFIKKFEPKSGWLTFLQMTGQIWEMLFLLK

[9] = target: T5, Ubiquitin-conjugating enzyme E2 N (Homo sapiens, UniProt P61088); format: functional
T5 sequence (P61088 whole entry): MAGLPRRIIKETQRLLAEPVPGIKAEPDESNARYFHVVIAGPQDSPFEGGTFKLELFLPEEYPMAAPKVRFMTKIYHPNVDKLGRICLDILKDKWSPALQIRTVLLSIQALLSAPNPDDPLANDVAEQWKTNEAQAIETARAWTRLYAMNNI

[10] = target: T5, Ubiquitin-conjugating enzyme E2 N; format: functional; remark: listed apart in the source
[11] = target: Mannose-6-phosphate isomerase (Homo sapiens, UniProt P34949); assay: human PMI inhibitors, high substrate, primary screen, biochemical, fluorescence intensity, high mannose 6-phosphate (AID 1220)
Chain of Mannose-6-phosphate isomerase (P34949 whole entry): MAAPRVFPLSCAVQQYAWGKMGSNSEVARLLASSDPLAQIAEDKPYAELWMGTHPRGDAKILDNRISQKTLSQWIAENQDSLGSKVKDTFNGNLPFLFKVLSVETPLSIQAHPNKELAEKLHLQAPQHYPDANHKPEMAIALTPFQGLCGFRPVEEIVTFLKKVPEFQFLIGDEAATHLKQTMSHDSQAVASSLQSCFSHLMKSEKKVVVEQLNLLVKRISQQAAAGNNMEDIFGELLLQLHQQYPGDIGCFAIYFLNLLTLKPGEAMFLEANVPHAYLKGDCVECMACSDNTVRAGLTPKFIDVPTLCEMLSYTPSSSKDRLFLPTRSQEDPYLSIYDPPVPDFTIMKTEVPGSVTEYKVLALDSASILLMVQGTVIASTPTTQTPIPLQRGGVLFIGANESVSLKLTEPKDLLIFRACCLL

[12] = target: Alkaline phosphatase, placental type (Homo sapiens, UniProt P05187); assay: PLAP enzyme inhibitors, confirmation, biochemical, luminescence (AID 1512); format: functional
Chain of Alkaline phosphatase, placental type (P05187 whole entry): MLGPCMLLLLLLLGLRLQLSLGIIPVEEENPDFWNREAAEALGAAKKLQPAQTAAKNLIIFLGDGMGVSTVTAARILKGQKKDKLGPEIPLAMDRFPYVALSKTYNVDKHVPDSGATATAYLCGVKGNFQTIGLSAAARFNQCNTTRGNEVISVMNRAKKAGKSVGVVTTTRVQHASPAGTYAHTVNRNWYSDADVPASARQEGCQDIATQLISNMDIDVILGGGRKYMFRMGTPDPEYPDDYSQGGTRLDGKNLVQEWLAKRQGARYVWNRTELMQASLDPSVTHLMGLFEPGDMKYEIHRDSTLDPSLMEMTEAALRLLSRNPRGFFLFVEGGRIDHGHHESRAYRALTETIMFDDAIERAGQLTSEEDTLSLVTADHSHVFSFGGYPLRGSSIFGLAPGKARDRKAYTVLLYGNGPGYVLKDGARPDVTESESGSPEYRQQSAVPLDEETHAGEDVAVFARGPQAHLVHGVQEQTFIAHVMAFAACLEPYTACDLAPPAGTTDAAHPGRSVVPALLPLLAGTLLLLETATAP

[13] = target: T6, Alkaline phosphatase, tissue-nonspecific isozyme (Homo sapiens, UniProt P05186); assay: human TNAP enzyme inhibitors, SAR follow-up, biochemical, luminescent, dose response (AID 1056)
T6 sequence (P05186 whole entry): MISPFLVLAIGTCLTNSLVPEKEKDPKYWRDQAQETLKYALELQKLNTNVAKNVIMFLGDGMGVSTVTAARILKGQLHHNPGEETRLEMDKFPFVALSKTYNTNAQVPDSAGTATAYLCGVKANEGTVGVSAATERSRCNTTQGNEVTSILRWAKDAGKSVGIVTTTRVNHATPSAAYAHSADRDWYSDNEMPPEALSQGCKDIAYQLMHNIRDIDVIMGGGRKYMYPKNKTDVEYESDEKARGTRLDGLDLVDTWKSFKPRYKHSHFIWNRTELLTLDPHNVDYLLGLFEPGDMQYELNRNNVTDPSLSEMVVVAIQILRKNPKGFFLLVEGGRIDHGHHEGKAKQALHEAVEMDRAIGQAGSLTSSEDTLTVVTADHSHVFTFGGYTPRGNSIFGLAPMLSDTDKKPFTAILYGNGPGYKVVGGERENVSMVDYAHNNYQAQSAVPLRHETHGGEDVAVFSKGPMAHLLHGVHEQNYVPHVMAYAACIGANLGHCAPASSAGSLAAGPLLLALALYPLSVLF

[14] = target: G-protein coupled receptor 55 (Homo sapiens, UniProt Q9Y2T6); assay: GPR55 antagonists blocking LPI-driven arrestin recruitment, primary screen, imaging, U2OS, beta-arrestin-GFP, LPI agonist (AID 2013); format: functional;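 note: antagonist potency measured as reduced agonist-driven arrestin aggregation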
Chain of G-protein coupled receptor 55 (Q9Y2T6 whole entry): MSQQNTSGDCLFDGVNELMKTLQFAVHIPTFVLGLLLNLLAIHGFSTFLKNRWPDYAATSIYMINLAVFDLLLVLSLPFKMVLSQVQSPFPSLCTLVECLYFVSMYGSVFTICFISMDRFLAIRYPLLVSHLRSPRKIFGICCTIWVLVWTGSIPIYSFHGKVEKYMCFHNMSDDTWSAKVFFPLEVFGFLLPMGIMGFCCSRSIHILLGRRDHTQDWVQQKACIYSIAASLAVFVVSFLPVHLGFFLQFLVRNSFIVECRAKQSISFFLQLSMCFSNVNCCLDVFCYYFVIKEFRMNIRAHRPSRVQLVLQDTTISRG

Caspase-3 = target: T7, Caspase-3 (Homo sapiens, UniProt P42574); assay: procaspase-3 activators, dose response, biochemical, absorbance (AID 489014)
T7 sequence (P42574 whole entry): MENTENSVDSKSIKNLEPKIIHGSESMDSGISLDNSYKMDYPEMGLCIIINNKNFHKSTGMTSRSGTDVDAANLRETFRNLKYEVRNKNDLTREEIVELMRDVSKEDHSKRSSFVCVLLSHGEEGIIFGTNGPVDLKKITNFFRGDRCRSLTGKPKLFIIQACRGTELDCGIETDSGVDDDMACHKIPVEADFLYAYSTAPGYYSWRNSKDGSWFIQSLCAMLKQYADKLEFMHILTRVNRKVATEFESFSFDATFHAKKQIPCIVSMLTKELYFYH

Caspase-7 = Caspase-7 (Homo sapiens, UniProt P55210); assay: procaspase-7 activators, dose response, counter-screen for procaspase-3 activator project, biochemical, absorbance (AID 489013)
Chain of Caspase-7 (P55210 24-198 limits assumed): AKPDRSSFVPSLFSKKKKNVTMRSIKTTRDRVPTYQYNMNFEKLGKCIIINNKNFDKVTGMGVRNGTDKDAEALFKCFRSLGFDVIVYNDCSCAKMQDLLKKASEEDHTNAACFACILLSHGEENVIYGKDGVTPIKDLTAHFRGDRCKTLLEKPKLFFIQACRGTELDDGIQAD
Chain of Caspase-7 (P55210 207-303 limits assumed): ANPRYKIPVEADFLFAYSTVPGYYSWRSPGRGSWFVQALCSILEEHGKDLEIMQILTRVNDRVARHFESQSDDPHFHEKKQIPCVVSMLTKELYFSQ

[15] = insulin promoter down-regulators in MIN6 cells, imaging, high-content screening, mouse beta cells (AID 1628); format: functional
cells [16] = format: functional, cell-based
[17] = cytotoxicity in MIN6 insulinoma cells, dose response, cytotoxicity control, cell-based, mouse insulinoma (AID 2122); format: functional;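 note: confirmatory high-throughput counterscreen run to flag cytotoxic compounds; mouse MIN-6 beta cells carrying an insulin promoter eGFP reporter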
[18] = inhibitors of intracellular T. cruzi replication, confirmation, NIH3T3 host cells, beta-gal luminescence (AID 2044); format: functional, cell-based;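 note: intracellular parasites grown in NIH/3T3 mouse fibroblasts as host cells; luminescent beta-galactosidase reporter signal from transgenic T. cruzi replicating inside host cells; inhibitors lower the luminescence signal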
cells [19] = format: functional, cell-based; remark: listed apart in the source
Troponin, cardiac muscle = Troponin, cardiac muscle (Homo sapiens, UniProt P19429+P45379+P63316); assay: Fluorescence-based biochemical high throughput dose response assay for activators of the calcium sensitivity of cardiac Regulated Thin Filaments (RTF). [Related pubchem assays (depositor defined):AID493008, AID493018, AID504382, AID504383]; format: protein-complex assay
[20] = THP-1 cell cytotoxicity, dose response, cytotoxicity control for non-replicating M. tuberculosis project (AID 489025); format: functional
[21] = Vero E6 cell cytotoxicity, dose response, cytotoxicity control for non-replicating M. tuberculosis project, secondary assay (AID 492998); format: functional, VeroE6; details: Vero C1008
[22] = target: Microphthalmia-associated transcription factor (Homo sapiens, UniProt O75030); assay: TRPM1 promoter luciferase signal decrease, dose response, MITF inhibitor project, cell-based, SK-MEL-5, cherry-picked, set 3 (AID 493073); format: functional
Chain of Microphthalmia-associated transcription factor (O75030 whole entry): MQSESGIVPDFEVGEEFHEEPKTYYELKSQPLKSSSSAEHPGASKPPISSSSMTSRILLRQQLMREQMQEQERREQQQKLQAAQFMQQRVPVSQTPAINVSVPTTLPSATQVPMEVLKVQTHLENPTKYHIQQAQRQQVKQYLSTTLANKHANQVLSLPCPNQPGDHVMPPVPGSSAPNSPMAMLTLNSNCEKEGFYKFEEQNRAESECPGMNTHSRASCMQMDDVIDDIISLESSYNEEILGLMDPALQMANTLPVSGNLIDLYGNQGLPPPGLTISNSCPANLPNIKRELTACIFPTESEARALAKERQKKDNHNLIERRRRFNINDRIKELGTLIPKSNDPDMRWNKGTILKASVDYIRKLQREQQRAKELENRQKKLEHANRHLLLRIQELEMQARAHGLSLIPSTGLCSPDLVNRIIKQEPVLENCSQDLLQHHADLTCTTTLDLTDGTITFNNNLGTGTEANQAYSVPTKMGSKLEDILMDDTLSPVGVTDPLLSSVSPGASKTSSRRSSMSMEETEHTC

cells [23] = format: functional

## O=C(Nc1ccccc1Cc1ccccc1)c1ccccc1NS(=O)(=O)c1ccc(Cl)s1
[1]
  EC50: 0.659 µM (active)
Streptokinase A
  EC50: > 150 µM (not active)
Ion channel NompC
  EC50: > 29.9 µM (inactive)
[2]
  IC50: 2.17 µM (active)
Mucolipin-3
  EC50: 24.3 µM (not active)
Streptococcus
  EC50: 4.09 µM (active)
[3]
  AC50: 0.706 µM (active)
[4]
  AC50: 8.18 µM (active)
[5]
  AC50: 14.7 µM (active)
[6]
  AC50: 18.2 µM (active)

## c1ccc2[nH]c(-c3ccnc4ccccc34)nc2c1
[7]
  IC50: > 64 µM (inactive)
[8]
  IC50: 3.66 µM (active)

## COc1ccccc1NC(=O)COc1ccc(C(=O)NCc2ccccc2)cc1OC
Bcl-2-related protein A1
  IC50: > 20 µM (inactive)
[9]
  IC50: 13 µM (active)
[10]
  IC50: > 20 µM (inactive)

## COC(=O)C(N)Cc1ccc(O)c(O)c1 (stereo not drawn)
[11]
  IC50: > 50 µM (not active)
[12]
  IC50: 8.43 µM (active)
[13]
  IC50: > 100 µM (inactive)

## COc1cc(OC)c(-n2c(C)cc(C=O)c2C)cc1Cl
[14]
  IC50: 4.72 µM (active)

## CCCCOn1c(C)c(C(=O)OCC)c2c3nonc3ccc21
Caspase-3
  EC50: > 85.3 µM (inactive)
Caspase-7
  EC50: > 85.3 µM (inactive)

## COc1ccc(CCNC(=O)CCNC(=O)c2ccc(Br)cc2)cc1OC
[7]
  IC50: > 64 µM (inactive)

## Cc1ccc(-c2nnc(SCC(=O)c3ccc(O)c(O)c3)n2-c2ccc(C)cc2)cc1
[12]
  IC50: 9.54 µM (active)
[13]
  IC50: > 100 µM (inactive)

## COc1cc(C(=O)Oc2ccccc2/C=N/NC(=O)c2ccc(Cl)cc2)cc(OC)c1OC
[15]
  IC50: 2.12 µM (active)
Cells [16]
  EC50: 9.29 µM (active)
[17]
  IC50: 1.99 µM (active)
[18]
  EC50: 1.31 µM (active)
Cells [19]
  EC50: > 350 µM (not active)
Troponin, cardiac muscle
  EC50: > 71.5 µM (inactive)

## CCN(CC)c1ccc(/C=N/NC(=S)NCc2ccco2)cc1
Caspase-3
  EC50: > 85.3 µM (inactive)
Caspase-7
  EC50: > 85.3 µM (inactive)

## Cc1ccc(C(=O)N/N=C\c2ccc([N+](=O)[O-])s2)cn1
[20]
  CC50: 26.2 µM (active)
[21]
  CC50: 13.1 µM (active)
[22]
  AC50: 2.95 µM (active)
Cells [23]
  IC50: 4.87 µM (active)

## N#C/C(=C\c1ccccn1)c1nc2ccccc2s1
Ion channel NompC
  EC50: 0.672 µM (active)
Mucolipin-3
  EC50: > 1.11 µM (not active)
